# Experiments:
# [1] = molecular target: human D3 receptor (Homo sapiens, UniProt P35462); format: cell-based; conditions: D3 functional mitogenesis assay
# [2] = cited from earlier work
# [3] = cited from earlier work; remark: listed apart in the source
# [4] = tested on: P450 isoforms; conditions: cited from earlier work
# [5] = tested on: hERG potassium channel; conditions: cited from earlier work
# [6] = rat; cited from earlier work
# [7] = cited from earlier work; remark: listed apart in the source
# Sequence of human D3 receptor (P35462 whole entry): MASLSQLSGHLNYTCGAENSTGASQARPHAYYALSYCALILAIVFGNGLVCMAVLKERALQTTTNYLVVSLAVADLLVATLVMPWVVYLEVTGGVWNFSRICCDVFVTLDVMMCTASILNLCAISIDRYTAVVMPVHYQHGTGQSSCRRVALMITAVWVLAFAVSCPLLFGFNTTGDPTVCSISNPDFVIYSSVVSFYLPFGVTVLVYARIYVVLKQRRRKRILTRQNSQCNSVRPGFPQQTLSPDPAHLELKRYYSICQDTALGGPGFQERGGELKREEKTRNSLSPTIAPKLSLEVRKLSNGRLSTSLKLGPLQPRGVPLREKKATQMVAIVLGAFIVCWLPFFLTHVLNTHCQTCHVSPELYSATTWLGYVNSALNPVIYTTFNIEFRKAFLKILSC
SMILES,functional activity at the D3 receptor [1],CNS penetration [3],aqueous solubility [7],further results
CCCN(CC[C@H]1CC[C@H](NS(=O)(=O)c2cccnc2Cl)CC1)[C@H]1CCc2nc(N)sc2C1 [Compound 52],full agonists,,,
Cc1ncoc1-c1nnc(SCCCN2CC3CC3(c3ccc(C(F)(F)F)cc3F)C2)n1C (stereo not shown) [Compound 3],,good,,oral bioavailability [2]: excellent; inhibition on all the P450 isoforms [4]: weak inhibition; inhibition at the hERG channel [5]: weak inhibition
Cc1nc(-c2cccc(C(=O)N[C@H]3CC[C@H](CCN4CCc5ccc(S(C)(=O)=O)cc5CC4)CC3)c2)no1 [SB-414796],,good,,bioavailability [6]: excellent
CCCN(CC[C@H]1CC[C@H](NC(=O)/C=C/c2ccccc2)CC1)[C@H]1CCc2nc(N)sc2C1 [Compound 10],,,excellent,
CCCN(CC[C@H]1CC[C@H](NC(=O)c2cccc(-c3noc(C)n3)c2)CC1)[C@H]1CCc2nc(N)sc2C1 [Compound 38],full agonists,,,
CCCN(CC[C@H]1CC[C@H](NC(=O)c2ccc3ccccc3c2)CC1)[C@H]1CCc2nc(N)sc2C1 [Compound 11],,,excellent,
